Assay results as given in the supplement of paper PMC11451515.

Key:
Settings in all cases: 48 h
[1] = tested on: NOMO1; experiment: AUC of viability dose-response curve (% viability x log10 dose units); higher = less sensitive
Procedure, shortened: (§1)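 Area under the curve was integrated by trapezoidal rule from a log-logistic fit of normalised viability, with curves exceeding full viability scaled and quality-control failures removed. The fit had four parameters over log10 doses. Viability came from CellTiter-Glo One luminescence, normalised per plate to DMSO and cell-free wells, after leukemia cells adapted to each medium (500 or 1000 cells/well, 1536-well plates) were exposed to library compounds in DMSO for 48 h at 37°C. The 11 threefold doses ran from 47 μM to 0.79 nM.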

[2] = tested on: P12-Ichikawa; experiment: as above
Procedure, shortened: as §1

[3] = tested on: SEM cells; experiment: as above
Procedure, shortened: as §1

[4] = tested on: NOMO1; experiment: cell viability relative to DMSO control; higher = less cytotoxic
Procedure, shortened: (§2)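 Before seeding, each leukemia line was adapted for at least four passages in each medium. NOMO1 or SEM cells (500 cells/well) and P12-Ichikawa cells (1000 cells/well) went into 1536-well plates at 5 μl, then received library compounds in DMSO by pin dosing across 11 threefold concentrations, 47 μM to 0.79 nM. Readout was CellTiter-Glo One luminescence after 48 h at 37°C, and viability is given as a per-plate percentage of DMSO wells, with cell-free wells as background.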

[5] = tested on: P12-Ichikawa; experiment: as above
Procedure, shortened: as §2

[6] = tested on: SEM cells; experiment: as above
Procedure, shortened: as §2

Cn1c(CCCC(=O)O)nc2cc(N(CCCl)CCCl)ccc21
AUC of viability dose-response curve
Settings | [1] | [2] | [3]
HPLM + 10% dialyzed FBS | 452 | 438 | 456
RPMI 5 mM glucose + 10% FBS | 441 | 457 | 414
RPMI 5 mM glucose + 10% dialyzed FBS | 453 | 451 | 447

C[C@@H](Oc1cc(-n2cnc3ccc(CN4CCN(C)CC4)cc32)sc1C(N)=O)c1ccccc1C(F)(F)F
AUC of viability dose-response curve
Settings | [1] | [2] | [3]
HPLM + 10% dialyzed FBS | 280 | 208 | 233
RPMI 5 mM glucose + 10% FBS | 246 | 202 | 214
RPMI 5 mM glucose + 10% dialyzed FBS | 255 | 214 | 234

CC1=C2N=C([NH]C2=CC(=C1)N3CCOCC3)\C4=C(NC[C@@H](O)C5=CC=CC(=C5)Cl)\C=C/NC4=O
cell viability [%]
Settings | [4] | [5] | [6]
HPLM + 10% dialyzed FBS, 0.000781 µM | 86.2 | 102 | 77.8
HPLM + 10% dialyzed FBS, 0.00234 µM | 100 | 104 | 95.7
HPLM + 10% dialyzed FBS, 0.00702 µM | 105 | 103 | 91.4
HPLM + 10% dialyzed FBS, 0.0211 µM | 99.8 | 109 | 91.2
HPLM + 10% dialyzed FBS, 0.0632 µM | 98.4 | 113 | 82.8
HPLM + 10% dialyzed FBS, 0.19 µM | 92.8 | 110 | 75.8
HPLM + 10% dialyzed FBS, 0.569 µM | 79.3 | 112 | 61.3
HPLM + 10% dialyzed FBS, 1.71 µM | 65.4 | 115 | 52.5
HPLM + 10% dialyzed FBS, 5.12 µM | 61.2 | 106 | 26.9
HPLM + 10% dialyzed FBS, 15.4 µM | 44.2 | 100 | 19.4
HPLM + 10% dialyzed FBS, 46.1 µM | 44.7 | 90.8 | 15.4
RPMI 5 mM glucose + 10% FBS, 0.000781 µM | 104 | 104 | 81.3
RPMI 5 mM glucose + 10% FBS, 0.00234 µM | 103 | 108 | 105
RPMI 5 mM glucose + 10% FBS, 0.00702 µM | 109 | 106 | 122
RPMI 5 mM glucose + 10% FBS, 0.0211 µM | 99.1 | 109 | 115
RPMI 5 mM glucose + 10% FBS, 0.0632 µM | 95.7 | 115 | 94.1
RPMI 5 mM glucose + 10% FBS, 0.19 µM | 108 | 114 | 95.6
RPMI 5 mM glucose + 10% FBS, 0.569 µM | 89.8 | 119 | 83.7
RPMI 5 mM glucose + 10% FBS, 1.71 µM | 73.7 | 117 | 56.2
RPMI 5 mM glucose + 10% FBS, 5.12 µM | 68.9 | 117 | 26.6
RPMI 5 mM glucose + 10% FBS, 15.4 µM | 65.3 | 106 | 14.2
RPMI 5 mM glucose + 10% FBS, 46.1 µM | 57.4 | 85.6 | 8.45
RPMI 5 mM glucose + 10% dialyzed FBS, 0.000781 µM | 99.6 | 101 | 70.7
RPMI 5 mM glucose + 10% dialyzed FBS, 0.00234 µM | 101 | 117 | 90.3
RPMI 5 mM glucose + 10% dialyzed FBS, 0.00702 µM | 90.4 | 120 | 84.6
RPMI 5 mM glucose + 10% dialyzed FBS, 0.0211 µM | 91.9 | 118 | 80.1
RPMI 5 mM glucose + 10% dialyzed FBS, 0.0632 µM | 96 | 116 | 67.9
RPMI 5 mM glucose + 10% dialyzed FBS, 0.19 µM | 87.6 | 119 | 75.1
RPMI 5 mM glucose + 10% dialyzed FBS, 0.569 µM | 72.8 | 120 | 66.8
RPMI 5 mM glucose + 10% dialyzed FBS, 1.71 µM | 67.1 | 128 | 46.7
RPMI 5 mM glucose + 10% dialyzed FBS, 5.12 µM | 53.6 | 110 | 21.1
RPMI 5 mM glucose + 10% dialyzed FBS, 15.4 µM | 57.2 | 105 | 13.7
RPMI 5 mM glucose + 10% dialyzed FBS, 46.1 µM | 49.1 | 85.7 | 7.96

AUC of viability dose-response curve
Settings | HPLM + 10% dialyzed FBS | RPMI 5 mM glucose + 10% FBS | RPMI 5 mM glucose + 10% dialyzed FBS
[1] | 385 | 411 | 378
[2] | 469 | 469 | 465
